Experimental data: patent EP4480471A1, “SPECIFIC COMPOUNDS FOR TREATING SIGNS OF SKIN AGING AND/OR HAIR AGING” (DSM IP Assets B.V., priority 2023, dated 2024)

Tested on: human dermal fibroblasts
Assay: Senolytic activity study: SA-beta-galactosidase flow cytometry on a mixed 70% normal / 30% senescent cell population
Assay type: cell-based
Settings: 72 hours; for Senescent cells left from 30%: normalized to untreated control, n = 4
Description: Normal and senescent cell populations were obtained from normal human dermal fibroblasts. For the normal cell population, the cells were seeded in cell culture medium (Dulbecco's Modified Eagle Medium supplemented with 10% serum and 1% antibiotics) and allowed to adhere and proliferate in a humidified cell incubator maintaining 37°C and 5% CO2. These were then passaged or collected when 90% confluent. For the senescent cell population, the normal fibroblast cells were at this stage shortly exposed to 200 µM H2O2 followed by normal cell culture medium. Several days later, the cells were treated again with H2O2 to obtain a fully senescent population.
Both normal and senescent populations were mixed into a 70% normal and 30% senescent cell population and represented the treatment population. Afterward, the 70% normal and 30% senescent cell population were seeded in cell culture medium and allowed to adhere in the cell incubator. After adherence, the medium was aspirated, and the treatment medium (Dulbecco's Modified Eagle Medium supplemented with 1% serum) containing the respective compounds at various concentrations (see Table 1) was added to the cells. For assay validation purposes, one condition with treatment medium only (without compound as negative control) and one condition with navitoclax (a known senolytic as positive control); both not included in the presented data. The cells were incubated in the cell incubator for at least 72 hours. Afterward, senescence-associated beta-galactosidase was visualized - a well-known senescence marker- in the cells to quantify the senescence levels using flow cytometry.
Data are normalized to the untreated control (30% senescent cells and 70% normal cells) (n = 4).

[1] = 25 µM, 70% normal and 30% senescent human dermal fibroblasts
[2] = 1 µM, 70% normal and 30% senescent human dermal fibroblasts
[3] = 5 µM, 70% normal and 30% senescent human dermal fibroblasts
[4] = concentration not given, human dermal fibroblasts

SMILES | Senolytic effect [1] | Senescent cells left from 30% [1] [%] | Senolytic effect [2] | Senolytic effect [3] | Senescent cells left from 30% [2] [%] | Senescent cells left from 30% [3] [%] | Senolytic effect [4]
COc1cc([C@@H]2CC(=O)c3c(O)cc(O)cc3O2)ccc1O [(I"1)] | yes | 23 | – | – | – | – | –
O=C1c2c(O)cc(O)cc2O[C@H](c2cc(O)c(O)c(O)c2)[C@H]1O [(I"2)] | yes | – | yes | yes | – | – | –
O=C1c2c(O)cc(O)cc2OC(c2cc(O)c(O)c(O)c2)C1O (centres unmarked) [(I"3)] | yes | – | yes | yes | – | – | –
COc1ccc(C2CC(=O)c3c(O)cc(O)cc3O2)cc1O (centres unmarked) [(I"4)] | yes | – | yes | yes | – | – | –
O=C1CC(c2ccccc2)Oc2ccc(O)cc21 (centres unmarked) [(I"5)] | yes | – | yes | yes | – | – | –
COc1cc(O)c2c(c1)OC(c1ccccc1)CC2=O (centres unmarked) [(I"6)] | yes | – | yes | yes | – | – | –
COc1cc(O)c2c(c1)OC(c1ccc(O)cc1)CC2=O (centres unmarked) [(I"7)] | yes | – | yes | yes | – | – | –
O=C1CC(c2ccccc2)Oc2cc(O)ccc21 (centres unmarked) [(I"8)] | – | – | yes | yes | 24 | 24 | yes
COc1cc(C2CC(=O)c3c(O)cc(O)cc3O2)ccc1O (centres unmarked) [(I"10)] | yes | 22 | – | – | – | – | yes
O=C1CC(c2ccc(O)c(O)c2)Oc2cc(O)cc(O)c21 (centres unmarked) [(I"11)] | – | – | yes | yes | – | – | yes
O=c1cc(-c2ccc(O)c(O)c2)oc2c(O)c(O)ccc12 [(I'1)] | yes | – | yes | yes | – | – | –
O=c1c(-c2ccc(O)c(O)c2)coc2cc(O)ccc12 [(I'2)] | yes | – | yes | yes | – | – | –
COc1cc(-c2oc3cc(O)ccc3c(=O)c2O)cc(OC)c1OC [(I'3)] | yes | – | yes | yes | – | – | –
COc1cc(C)c2c(=O)c(-c3ccccc3)coc2c1 [(I'4)] | yes | – | yes | yes | – | – | –
COc1ccc(-c2cc(=O)c3c(OC)cc(OC)cc3o2)cc1 [(I'5)] | yes | – | yes | yes | – | – | –
COc1cc2oc(-c3ccccc3)cc(=O)c2c(O)c1O [(I'6)] | yes | – | yes | yes | – | – | –
COc1ccc(-c2coc3cc(O)cc(O)c3c2=O)cc1 [(I'7)] | yes | – | yes | yes | – | – | –
COc1cc(-c2cc(=O)c3c(O)cc(O)cc3o2)ccc1O [(I'8)] | yes | – | yes | yes | – | – | –
O=c1cc(-c2ccc(O)cc2)oc2c(-c3c(O)cc(O)c4c(=O)cc(-c5ccc(O)cc5)oc34)c(O)cc(O)c12 [(I'9)] | yes | – | yes | yes | – | – | –
O=c1c(O)c(-c2ccc(O)cc2)oc2c(O)c(O)cc(O)c12 [(I'10)] | yes | – | – | yes | – | – | –

SMILES | Senolytic effect [1] | Senescent cells left from 30% [1] [%] | Senolytic effect [2] | Senolytic effect [3] | Senescent cells left from 30% [2] [%] | Senescent cells left from 30% [3] [%] | Senolytic effect [4]
COc1ccc(-c2cc(=O)c3c(O)cc(O[C@@H]4O[C@H](CO)[C@@H](O)[C@H](O)[C@H]4O)cc3o2)cc1O [(I'11)] | yes | – | – | yes | – | – | –
CC1OC(Oc2c(-c3cc(O)c(O)c(O)c3)oc3cc(O)cc(O)c3c2=O)C(O)C(O)C1O (centres unmarked) [(I'14)] | yes | – | yes | yes | – | – | –
COc1c(O[C@@H]2O[C@H](CO)[C@@H](O)[C@H](O)[C@H]2O)cc2oc(-c3ccc(O)c(O)c3)c(O)c(=O)c2c1O [(I'15)] | yes | – | yes | yes | – | – | –
CC(C)Oc1ccc2c(=O)c(-c3ccccc3)coc2c1 [(I'16)] | yes | – | yes | yes | – | – | –
O=c1c(O)c(-c2ccc(O)cc2)oc2cc(O)cc(O)c12 [(I'17)] | yes | – | yes | yes | – | – | –
COc1c(O)cc2oc(-c3ccc(O)c(O)c3)cc(=O)c2c1O [(I'18)] | yes | – | yes | yes | – | – | –
COc1cc(O)c2c(=O)c(O)c(-c3ccc(O)c(OC)c3)oc2c1 [(I'19)] | yes | – | yes | yes | – | – | –
COc1cc(O)c2c(=O)c(O)c(-c3ccc(O)c(O)c3)oc2c1 [(I'20)] | yes | – | yes | yes | – | – | –
O=c1c(O)c(-c2cc(O)c(O)c(O)c2)oc2cc(O)ccc12 [(I'21)] | yes | – | yes | yes | – | – | –
O=c1cc(-c2cc(O)c(O)c(O)c2)oc2cc(O)cc(O)c12 [(I'22)] | yes | – | yes | yes | – | – | –
COc1c(-c2ccccc2)oc2ccccc2c1=O [(I'23)] | yes | 21 | – | – | – | – | yes
COc1cc2oc(-c3ccccc3)cc(=O)c2c(OC)c1OC [(I'24)] | yes | – | – | yes | – | – | yes
O=c1c(O)c(-c2ccccc2O)oc2cc(O)cc(O)c12 [(I'25)] | yes | – | yes | yes | – | – | –
O=c1c(-c2ccc(O)cc2)coc2cc(O[C@@H]3O[C@H](CO)[C@@H](O)[C@H](O)[C@H]3O)ccc12 [(I'26)] | – | – | yes | – | 25 | – | yes
COc1ccc(-c2cc(=O)c3c(O)cc(O)cc3o2)cc1O [(I'27)] | yes | – | yes | yes | – | – | –
COc1cc2c(=O)c(-c3ccc(O)cc3)coc2cc1O [(I'28)] | yes | 23 | – | – | – | – | yes
COc1cc(-c2cc(=O)c3c(O)c(OC)c(OC)c(OC)c3o2)cc(OC)c1OC [(I'29)] | yes | – | yes | yes | – | – | –
COc1cc(-c2coc3cc4c(c(OC)c3c2=O)OCO4)cc(OC)c1OC [(I'30)] | yes | 26 | – | – | – | – | yes
COc1ccc(-c2cc(=O)c3ccc(O)cc3o2)cc1 [(I'32)] | yes | – | yes | yes | – | – | –
COc1ccc(-c2cc(=O)c3c(OC)c(OC)c(OC)cc3o2)cc1 [(I'33)] | yes | – | yes | yes | – | – | –
